For data set [1], the system named is nSMase. Also on record: method as in PMID 21615386, PMID 17049336. The note with it: cited from earlier work; for IC50: Enzyme source: Rat brain.
For data set [2] the following is noted: in DMSO; cited from earlier work.
In data set [3] the target is T1, human nSMase2 (Homo sapiens, UniProt Q9NY59).
T1 sequence (Q9NY59 1-655): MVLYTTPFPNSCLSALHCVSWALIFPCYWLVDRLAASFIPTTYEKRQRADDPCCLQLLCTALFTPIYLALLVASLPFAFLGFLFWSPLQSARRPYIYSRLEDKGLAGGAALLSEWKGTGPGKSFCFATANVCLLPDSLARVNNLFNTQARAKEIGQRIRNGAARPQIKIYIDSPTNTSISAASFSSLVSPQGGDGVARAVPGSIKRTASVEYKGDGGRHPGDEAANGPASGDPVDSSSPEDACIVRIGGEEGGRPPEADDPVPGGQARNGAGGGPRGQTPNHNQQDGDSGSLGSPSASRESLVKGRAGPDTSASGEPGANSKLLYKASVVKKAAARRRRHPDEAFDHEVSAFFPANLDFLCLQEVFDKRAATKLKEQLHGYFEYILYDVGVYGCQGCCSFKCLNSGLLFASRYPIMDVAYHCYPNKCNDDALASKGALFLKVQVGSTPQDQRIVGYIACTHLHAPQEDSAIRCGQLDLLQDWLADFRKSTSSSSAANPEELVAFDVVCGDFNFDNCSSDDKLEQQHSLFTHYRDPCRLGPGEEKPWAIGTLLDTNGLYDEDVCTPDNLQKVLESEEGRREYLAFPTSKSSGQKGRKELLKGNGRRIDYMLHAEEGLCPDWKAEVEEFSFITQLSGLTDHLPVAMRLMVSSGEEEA
Kind of data set: Fluorescence (Amplex red coupled) nSMase2 activity assay. The note with it: for inhibition of human nSMase2 activity: 150 μM GW4869, 100 μM manumycin A, altenusin, zoledronic acid; for block of human nSMase2 activity: even at 100 μM. Also on record: Full length human nSMase2 cDNA with a C-terminal Flag tag; crude cell lysate used as enzyme. Format: biochemical. The method, then:
The production of the latter was coupled to a dephosphorylation reaction catalyzed by alkaline phosphatase (4 U/ml) to produce choline, followed by oxidation of choline by choline oxidase (0.1 U/ml) to produce betaine and H2O2, which in the presence of horseradish peroxidase (HRP, 1U/ml) and 50 μM Amplex red, generates the fluorescent molecule resorufin (Life Technologies). Substrate stock solution was prepared in 2% Triton X-100, vortexed and sonicated for 30 min. Reactions were carried out for 1 h at 37°C in 100 mM Tris-HCl pH 7.4, 10 mM MgCl2, 0.2% Triton X-100 and the generation of the fluorescent product was monitored by measuring relative florescence units (RFU) with excitation at 530 nm and emission at 590 nm (Fig 1). This assay was optimized for 384-well format (50 μl total volume per well) based on linearity of the enzymatic activity with respect to time, as well as substrate and enzyme concentrations. […] This fluorescence assay was used for compound screening and IC50 value determinations, based on duplicate eight-point dose response curves.

The nature of the next data set: Solubility. The class given is physicochemical. The note with it: cambinol compared to GW4869.
Data set [4] deals with nSMase. Also on record: method as in PMID 21615386, PMID 17049336. The settings on record: Enzyme source: Mouse brain; cited from earlier work.
In another data set the test system is SIRT2. The note with it: cited from earlier work.
Data set [5] relates to rat primary hippocampal neurons. Kind of data set: Hippocampal neuronal survival (Hoechst 33342). The class given is cell-based. The method, then:
All animal procedures were approved by the Johns Hopkins University Animal Care and Use Committee. Primary hippocampal neurons were prepared from day 18 decapitated embryos of Sprague-Dawley rats following previously described methods. Cells were seeded on polyethyleneimine (PEI)-coated slides in 12-well plates and cultured between 14–21 days. […] After 18 h, cells were stained with 50 μg/ml Hoeschst 33342 for 20 min and then fixed with 4% paraformaldehyde for 30 min. The number of living and apoptotic cells was determined by fluorescence microscopy. A minimum of 500 cells were counted per treatment condition. Results were normalized to control untreated cells and were representative of at least two independent experiments conducted in triplicate. Statistical evaluation of the data was done by Student’s t-test.

For another data set, the system named is SIRT1. The settings on record: cited from earlier work.
Data set [6] has as its system nSMase. Also on record: method as in PMID 21615386, PMID 17049336. The settings on record: cited from earlier work.
The target in data set [7] is T1, human nSMase2. Kind of data set: 14C-SM confirmatory direct activity assay. Also on record: Full length human nSMase2 cDNA with a C-terminal Flag tag; host or cells: HEK293, stably transfected; crude cell lysate used as enzyme. Format: biochemical. As to the method: This assay was dependent on the direct hydrolysis of ^14C-labeled SM (^14C N-methyl groups in the phosphorylcholine) by human nSMase2. Optimization of assay conditions was accomplished according to the methods of Barbone et al.. Briefly, bovine [N-methyl-^14C]-sphingomyelin (specific activity […], Perkin Elmer) and phosphatidylinositol (Avanti Polar Lipids) were evaporated to dryness under a stream of nitrogen and resuspended at an equimolar concentration of 0.1 mM in water with 0.5% Triton X-100 (Sigma). The solution was vortexed for 30 min and then sonicated for 30 min. Assay conditions were as follows: 50 μl total volume per reaction, consisting of 20 μM SM, reaction buffer (100 mM Tris-HCl pH 7.5, 80 mM MgCl2, 0.1% Triton X-100); 10 μl cell lysate containing recombinant human nSMase2 (0.5–1 μg protein/assay) and 5 μl of compound in reaction buffer containing 10% DMSO. After 1 h incubation at 37°C the reaction was terminated by the addition of 30 μl of water and 175 μl of chloroform/methanol (2:1, v:v), followed by vigorous vortexing. Tubes were centrifuged for 5 min at 10,000 xg at room temperature to separate the organic bottom phase containing labeled SM and the aqueous upper phase containing ^14C-labeled-phosphorylcholine. An aliquot (50 μl) of the upper phase was transferred to a vial with 10 ml of scintillant and counted for 2 min on a Beckman LS-6000IC scintillation counter. Enzyme activity was directly proportional to the disintegrations per min (dpm) resulting from the generation of ^14C-phosphorylcholine.

Molecules are shown by their SMILES. Converted amounts (≈) assume the structure as drawn. “And” between values parts separate entries of the source, which are not always exact repeats. Equal entries are not always repeated. “Also recorded” adds a separate entry of the source. Where two headings read alike, the source gives them in different places.

Regarding `CC[C@@H](C)/C=C(\C)C[C@@H](C)C[C@@H](C)/C=C/C=C/C=C/C(=O)N[C@H](CO)C[C@@]1(O)C(=O)C=C[C@@H]2O[C@@H]21` [Scyphostatin], the MOI entry with nSMase [1] is listed as “Competitive”.
For `O=C(/C=C\c1ccc(/C=C\C(=O)Nc2ccc(C3=NCCN3)cc2)cc1)Nc1ccc(C2=NCCN2)cc1` [GW4869, reference compound], in [2], the solubility is 200 µg/mL (≈ 396 µM). The “modulation of enzymatic activity (Fig 3C raw data)” value on human nSMase2 [3] (150 µM (nominal)) was 59.6 RFU and 72.8 RFU and 57.5 RFU and 70.4 RFU. Further, the “inhibition of human nSMase2 activity” value against human nSMase2 [3] is given as “possible to inhibit enzyme activity; also recorded: inhibition”. For the same compound, on nSMase [1], the 50% inhibitory concentration (IC50) was 1 µM and the MOI entry was “Non- competitive”. Also, in the data set “Solubility”, the “aqueous solubility” value was “low”.
Take `CCCCCCCCCCC=NNC(=N)N` [C11AG]: the IC50 at nSMase [4] is 8 µM.
On to `NC(=O)[C@H]1CCCCc2c1[nH]c1ccc(Cl)cc21` [CHIC-35, reference compound], for which the 50% inhibitory concentration (IC50) was 19.6 µM in the data set with SIRT2, 70 µM at human nSMase2 [3] (fluorescence nSMase2 assay (S2 Fig)) and […] in the data set with SIRT1. For the same compound, the “block of human nSMase2 activity” value on human nSMase2 [3] was “not possible to block”. In addition, the “neuron survival, Mean (normalized to control untreated cells)” value was found to be 71.88 in data set [5] (100 ng/ml TNFα, 200 nM compound) and 62.07 in [5] (No TNFα, 200 nM compound).
Turning to `COc1cc(O)c(C(=O)O)c(-c2cc(O)c(O)cc2C)c1` [Altenusin, reference compound], on human nSMase2 [3] (100 µM), the “modulation of enzymatic activity (Fig 3C raw data)” value is 75.4 RFU and 73.8 RFU and 72.1 RFU and 74.7 RFU. Besides, on human nSMase2 [3], the “inhibition of human nSMase2 activity” value was “possible to inhibit enzyme activity; also recorded: inhibition”. Moreover, on nSMase [1], the IC50 is 28 µM and the MOI result is reported as “Non- competitive”.
For the compound `CCCC[C@@H](C)/C=C(C)/C=C(\C)C(=O)NC1=C[C@@](O)(/C=C/C=C/C=C/C(=O)NC2=C(O)CCC2=O)[C@@H]2O[C@@H]2C1=O` [Manumycin A, reference compound], the MOI entry in the data set with nSMase [6] is recorded as “Irreversible”. On human nSMase2 [3], the “inhibition of human nSMase2 activity” value is reported as “inhibition”.
As to `CCCCn1c(-c2ccccc2)c(Cc2c(O)ccc3ccccc23)c(=O)[nH]c1=S` [compound 4], the “potency and specificity against SIRT 2 vs cambinol” value with SIRT2 is “significantly improved”. The “human nSMase2 inhibitory activity of analog vs cambinol” value on human nSMase2 [7] (SAR) is reported as “loss of activity; also recorded: eliminated”. Further, at human nSMase2 [7] ([14C]-SM direct activity assay, human recombinant enzyme), the half-inhibitory concentration (IC50) was over 100 µM.
`CC1CC2C(C=CC3CC(O)CC4CC(=O)C(=CC32)C(=O)O4)C1=O` (stereo not drawn) [Macquarimicin A]: on nSMase [1], the half-maximal inhibitory concentration (IC50) was 145 µM and the MOI entry is “Non- competitive”.
With `CC(NC(=O)c1ccccc1/N=C/c1c(O)ccc2ccccc12)c1ccccc1` (stereo not drawn) [sirtinol, reference compound], the concentration for half-maximal inhibition (IC50) is […] with SIRT2 and […] with SIRT1. The “block of human nSMase2 activity” value at human nSMase2 [3] is reported as “not possible to block”. In addition, the “neuron survival, Mean (normalized to control untreated cells)” value is reported as 60.73 in [5] (100 ng/ml TNFα, 40 µM compound) and 53.3 in data set [5] (No TNFα, 40 µM compound).

The values are drawn from article PMC4444023 (PLoS ONE, 2015).
